Experiment [1] deals with Mycobacterium tuberculosis. The conditions noted are these: from WO 2008009700 / J. Med. Chem. 2014, 57, 4889-4905; cited from earlier work.
Experiment [2] has as its system Staphylococcus aureus ATCC 29213. As to the kind of experiment: MIC, growth inhibition in Mueller Hinton Broth. The conditions noted are these: ATCC29213, S. aureus ATCC 29213, Gram positive, read-out: Minimum Inhibitory Concentration S. aureus ATCC 29213. Format: cell-based.
Experiment [3] concerns Escherichia coli ATCC 25922. As to the kind of experiment: MIC, growth inhibition in Mueller Hinton Broth. Format: cell-based. The conditions noted are these: ATCC25922, E. coli ATCC 25922, Gram-negative, read-out: Minimum Inhibitory Concentration E. coli ATCC 25922.
In a further experiment the target is Topoisomerase II (UniProt P20831). Nature of the experiment: Topoisomerase II inhibition, gel electrophoresis method. Format: biochemical. Particulars: 37° C. for 30 min, read-out: Invitro IC50 Topoisomerase II. As for the experimental part: (§1) Evaluation of Topoisomerase II/IV inhibition using gel electrophoresis method: Topoisomerase II/IV (1 unit, Inspiralis) was added to a reaction mixture of DNA (pHOT/kDNA, Topogen) and ATP in appropriate buffers following which different concentrations of the test compounds were added and incubated at 37° C. for 30 min. The reaction was terminated after 30 minutes by the addition of stop buffer. The resulting DNA (relaxed, supercoiled or decatanated) was extracted using chloroform: isoamyl alcohol mixture and was separated using 1% agarose gel electrophoresis. Gel was stained with ethidium bromide for 20 minutes, washed with distilled water and the images were captured for further analysis. The band Intensities from the image were measured using Image J software and the half-maximal […] inhibitory concentration was deduced using Graphpad Prism.
Chain of Topoisomerase II (P20831 whole entry): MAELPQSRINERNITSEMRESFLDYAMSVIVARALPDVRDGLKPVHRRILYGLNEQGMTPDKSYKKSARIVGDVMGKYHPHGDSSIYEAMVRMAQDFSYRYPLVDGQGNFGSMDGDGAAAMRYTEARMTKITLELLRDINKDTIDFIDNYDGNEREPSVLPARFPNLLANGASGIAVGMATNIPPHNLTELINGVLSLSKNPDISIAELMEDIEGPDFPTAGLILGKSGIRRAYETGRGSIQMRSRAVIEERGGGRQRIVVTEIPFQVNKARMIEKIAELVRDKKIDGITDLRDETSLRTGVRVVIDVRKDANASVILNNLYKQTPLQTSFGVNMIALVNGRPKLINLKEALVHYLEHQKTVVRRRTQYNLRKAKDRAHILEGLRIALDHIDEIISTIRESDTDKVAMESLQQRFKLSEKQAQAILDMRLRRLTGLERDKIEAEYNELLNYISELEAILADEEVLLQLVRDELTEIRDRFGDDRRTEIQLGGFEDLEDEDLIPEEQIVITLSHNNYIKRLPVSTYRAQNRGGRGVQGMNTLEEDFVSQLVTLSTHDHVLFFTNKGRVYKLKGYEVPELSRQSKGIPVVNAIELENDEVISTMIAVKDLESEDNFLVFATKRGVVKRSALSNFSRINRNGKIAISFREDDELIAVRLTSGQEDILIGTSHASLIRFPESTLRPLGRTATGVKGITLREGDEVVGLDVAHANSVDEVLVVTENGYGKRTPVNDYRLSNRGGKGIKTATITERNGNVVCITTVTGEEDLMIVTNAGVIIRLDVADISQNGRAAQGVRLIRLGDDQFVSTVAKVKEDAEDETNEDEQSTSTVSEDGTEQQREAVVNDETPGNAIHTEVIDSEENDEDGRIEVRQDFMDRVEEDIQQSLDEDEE

The test system of experiment [4] is Staphylococcus aureus ZYABL 006. As to the kind of experiment: MIC against fluoroquinolone resistant strain. The format is cell-based. The conditions noted are these: ZYABL006, quinolone resistant clinical strain, read-out: Minimum Inhibitory Concentration Staphylococcus aureus ZYABL 006.
Another experiment addresses T1, Topoisomerase IV (Escherichia coli, UniProt P0AFI2).
T1 construct: purchased Inspiralis
Nature of the experiment: Topoisomerase IV inhibition, gel electrophoresis method. The format is biochemical. The conditions noted are these: 37° C. for 30 min, read-out: Invitro IC50 Topoisomerase IV. As for the experimental part: as §1

In the next experiment the target is T2, hERG channel (Homo sapiens, UniProt Q12809).
T2 construct: expressed in transfected cells; host or cells: CHO cells
T2 sequence (Q12809 whole entry): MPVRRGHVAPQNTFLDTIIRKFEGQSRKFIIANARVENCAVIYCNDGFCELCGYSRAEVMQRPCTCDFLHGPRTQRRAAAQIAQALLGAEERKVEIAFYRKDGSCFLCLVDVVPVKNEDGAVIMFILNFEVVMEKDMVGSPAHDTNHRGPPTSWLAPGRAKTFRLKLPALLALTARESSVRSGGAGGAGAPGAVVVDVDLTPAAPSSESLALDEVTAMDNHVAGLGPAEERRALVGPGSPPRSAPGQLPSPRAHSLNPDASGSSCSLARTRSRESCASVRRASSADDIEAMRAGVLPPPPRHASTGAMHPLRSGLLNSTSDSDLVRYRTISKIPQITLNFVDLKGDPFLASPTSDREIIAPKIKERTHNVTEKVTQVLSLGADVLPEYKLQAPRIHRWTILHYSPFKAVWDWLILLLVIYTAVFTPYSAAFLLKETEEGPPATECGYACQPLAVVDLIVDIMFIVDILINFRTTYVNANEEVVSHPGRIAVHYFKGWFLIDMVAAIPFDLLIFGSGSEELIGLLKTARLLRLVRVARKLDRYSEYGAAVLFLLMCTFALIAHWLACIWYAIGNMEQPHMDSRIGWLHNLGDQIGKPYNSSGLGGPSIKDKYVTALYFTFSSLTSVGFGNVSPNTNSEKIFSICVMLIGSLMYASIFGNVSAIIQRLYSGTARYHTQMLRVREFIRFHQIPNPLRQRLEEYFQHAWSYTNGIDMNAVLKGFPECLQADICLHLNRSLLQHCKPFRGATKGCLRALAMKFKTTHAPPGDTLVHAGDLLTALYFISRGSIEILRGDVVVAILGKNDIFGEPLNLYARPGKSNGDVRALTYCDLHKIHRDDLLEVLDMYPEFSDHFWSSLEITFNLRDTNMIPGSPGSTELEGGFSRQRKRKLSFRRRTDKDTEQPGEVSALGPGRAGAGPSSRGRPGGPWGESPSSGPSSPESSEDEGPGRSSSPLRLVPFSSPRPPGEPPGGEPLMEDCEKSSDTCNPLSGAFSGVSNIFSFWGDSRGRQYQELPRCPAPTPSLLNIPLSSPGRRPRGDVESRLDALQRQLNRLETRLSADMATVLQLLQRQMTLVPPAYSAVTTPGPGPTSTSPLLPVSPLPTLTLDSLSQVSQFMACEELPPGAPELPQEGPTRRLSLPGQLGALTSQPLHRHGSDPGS
Nature of the experiment: hERG binding study, FluxOR potassium ion channel assay. Format: cell-based. Particulars: hERG CHO cells, thallium flux, 20 min incubation. As for the experimental part: FluxOR™ Potassium Ion Channel Assay
Thallium flows down its concentration gradient into the cells, and channel activity is detected with indicator dye that increases in cytosolic fluorescence. Stably expressing hERG CHO cells are checked with test compounds for hERG liability. Compounds incubated for 20 min with cells then stimulation buffer was added and fluorescence measured on TECAN multimode reader. If test compound is inhibiting hERG channel then it will not allow the thallium to flows down in the cells. Vehicle control is considered as total hERG response while treatment with Astemizole as a total hERG channel inhibition and based on that test compounds hERG channel inhibition calculated.
On the technique in general: Block of hERG is tested as a sign of cardiac risk.

Another experiment concerns S. pnuemoniae ATCC6301. The conditions noted are these: from WO 2018172925; cited from earlier work.
For experiment [5], the system named is Enterococcus Faecalis ATCC29212. The conditions noted are these: from WO 2018172925; cited from earlier work.
A further experiment concerns E. coli ATCC 25922. The conditions noted are these: from WO 2018172925; cited from earlier work.
The next experiment deals with S. aureus-ATCC 29213. Particulars: from WO 2018172925; cited from earlier work.
A further experiment relates to K pneumonia ATCC 700603. Particulars: from WO 2018172925; cited from earlier work.
The subject of experiment [6] is Moraxella catarrhalis ATCC8176. Particulars: from WO 2018172925; cited from earlier work.
Experiment [7] concerns Enterococcus faecalis (ATCC700802). As to the kind of experiment: MIC testing against broad panel of strains. The conditions noted are these: ATCC700802, read-out: MIC Enterococcus faecalis (ATCC700802).
Procedure: (§2) The ability of the invention compounds disclosed herein to achieve an antibacterial effect may be evaluated with regard to their ability to inhibit the growth of bacterial species like Escherichia coli ATCC 25922, Staphylococcus aureus ATCC 29213 using an assay based on the following Minimum Inhibitory Concentration (MIC) protocol:
(§3) The test bacteria are grown in Muellor Hinton Broth (M1657)—MHB, 25 grams of the powder is dissolved in 1000 ml distilled water and sterilized by autoclaving at 15 lbs pressure (121° C.) for 20 minutes. The medium sterility is checked by incubating at 37° C. for a period of 48 h.
(§4) Bacterial cultures that are stored as glycerol stocks at −80° C. are sub cultured on LB agar plates to obtain isolated colonies. A single colony of each strain is cultured in LB broth. The cultures are incubated at 37° C., 200 rpm till they reach an optical density (OD at 600 nm) of 0.8 to 1. This log phase culture is diluted in LB broth to a cell number of 5-8*10^5 CFU/mL to be used as inoculum for MIC experiments.
(§5) Test compounds were diluted in their respective solvents and added to a final concentration ranging from 16 to 0.12 μg/ml in 150 μl MHB in 96 well plates.
(§6) Controls to monitor the effects of DMSO and media sterility are included. […] The following morning, the plates are read using a Spectrophotometer at 600 nm wavelength.
Experiment [8] relates to Staphylococcus pneumonia (ATCC700906). As to the kind of experiment: MIC testing against broad panel of strains. Particulars: ATCC700906, read-out: MIC Staphylococcus pneumonia (ATCC700906).
Procedure: as §2, §3, §4, §5, §6
For experiment [9], the system named is Staphylococcus aureus (BAA38). As to the kind of experiment: MIC testing against broad panel of strains. Particulars: BAA38, read-out: MIC Staphylococcus aureus (BAA38).
Procedure: as §2, §3, §4, §5, §6
In experiment [10] the test system is Escherichia coli (ATCC10536). As to the kind of experiment: MIC testing against broad panel of strains. The conditions noted are these: ATCC10536, read-out: MIC Escherichia coli (ATCC10536).
Procedure: as §2, §3, §4, §5, §6
The subject of experiment [11] is Klebsiella pneumonia (ATCC35657). Nature of the experiment: MIC testing against broad panel of strains. The conditions noted are these: Klebsiella pneumoniae, ATCC35657, read-out: MIC Klebsiella pneumonia (ATCC35657).
Procedure: as §2, §3, §4, §5, §6
Experiment [12] concerns Acinetobacter baumannii (BAA1605). Nature of the experiment: MIC testing against broad panel of strains. Particulars: BAA1605, read-out: MIC Acinetobacter baumannii (BAA1605).
Procedure: as §2, §3, §4, §5, §6
Experiment [13] has as its system Mycobacterium tuberculosis H37Rv. As to the kind of experiment: Mycobacterium tuberculosis H37Rv inhibition assay (MIC). Format: cell-based. As for the experimental part:
Mycobacterium tuberculosis H37Rv Inhibition Assay
The measurement of the minimum inhibitory concentration (MIC) for each tested compound was performed in 96 wells flat bottom, polystyrene microtiter plates following standard protocol.

Converted amounts (≈) assume the structure as drawn.

T1 sequence (P0AFI2 whole entry): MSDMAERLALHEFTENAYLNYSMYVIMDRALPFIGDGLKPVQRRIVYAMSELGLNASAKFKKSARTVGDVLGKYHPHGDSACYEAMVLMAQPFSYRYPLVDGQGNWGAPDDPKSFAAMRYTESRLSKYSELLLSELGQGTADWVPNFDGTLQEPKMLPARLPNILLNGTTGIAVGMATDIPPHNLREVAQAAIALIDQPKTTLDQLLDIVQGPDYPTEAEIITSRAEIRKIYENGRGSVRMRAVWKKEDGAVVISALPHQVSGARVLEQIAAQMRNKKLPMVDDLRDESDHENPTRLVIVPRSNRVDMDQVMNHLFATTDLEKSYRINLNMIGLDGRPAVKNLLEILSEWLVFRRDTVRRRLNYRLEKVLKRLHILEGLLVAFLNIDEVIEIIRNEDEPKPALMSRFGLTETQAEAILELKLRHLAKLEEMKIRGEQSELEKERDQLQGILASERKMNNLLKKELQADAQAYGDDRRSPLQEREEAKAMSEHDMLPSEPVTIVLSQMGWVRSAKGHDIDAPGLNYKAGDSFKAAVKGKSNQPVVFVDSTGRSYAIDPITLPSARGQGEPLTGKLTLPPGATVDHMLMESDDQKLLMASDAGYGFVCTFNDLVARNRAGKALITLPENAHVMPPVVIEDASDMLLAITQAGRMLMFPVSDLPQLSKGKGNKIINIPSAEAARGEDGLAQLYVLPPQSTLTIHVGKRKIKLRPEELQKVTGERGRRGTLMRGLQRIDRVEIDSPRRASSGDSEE
T1 sequence (P20083 whole entry, further chain): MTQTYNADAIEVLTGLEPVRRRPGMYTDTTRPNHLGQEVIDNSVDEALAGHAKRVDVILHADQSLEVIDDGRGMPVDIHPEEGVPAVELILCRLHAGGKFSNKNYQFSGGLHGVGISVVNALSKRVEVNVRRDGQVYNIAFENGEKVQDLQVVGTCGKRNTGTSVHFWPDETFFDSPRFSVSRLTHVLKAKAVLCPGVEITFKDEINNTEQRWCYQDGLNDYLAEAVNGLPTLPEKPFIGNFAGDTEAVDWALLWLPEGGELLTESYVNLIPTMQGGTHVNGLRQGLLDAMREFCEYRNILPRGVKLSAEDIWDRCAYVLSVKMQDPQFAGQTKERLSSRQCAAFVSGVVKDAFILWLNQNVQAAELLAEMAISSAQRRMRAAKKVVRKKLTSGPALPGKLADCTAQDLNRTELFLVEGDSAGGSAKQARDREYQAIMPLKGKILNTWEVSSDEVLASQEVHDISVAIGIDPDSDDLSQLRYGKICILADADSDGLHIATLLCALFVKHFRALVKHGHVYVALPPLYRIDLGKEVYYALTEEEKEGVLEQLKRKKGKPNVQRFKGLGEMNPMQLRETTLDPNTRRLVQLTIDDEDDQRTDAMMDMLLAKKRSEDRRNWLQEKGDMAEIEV

For `N#Cc1ccc2ccc(=O)n(CCN3CCC(NCc4cc5c(cn4)OCCO5)CC3)c2c1` [Example 54], the “MIC against Mycobacterium tuberculosis” value in experiment [1] was 1 µM (≈ 0.446 µg/mL).
By IC50 is commonly meant the concentration that inhibits the measured activity by half. Take `N#Cc1ccc2ccc(=O)n(CCN3CCC(NCc4ccc5c(c4)NC(=O)CO5)CC3)c2c1` [Example 2, 2-oxo-1-(2-(4-(((3-oxo-3,4-dihydro-2H-benzo[b][1,4]oxazin-6-yl)methyl)amino)piperidin-1-yl)ethyl)-1,2-dihydroquinoline-7-carbonitrile]: the results for the MIC in [2], in experiment [3] and in experiment [4] were 0.25 µg/mL (≈ 0.546 µM), 0.25 µg/mL (≈ 0.546 µM) and < 0.125 µg/mL, respectively. The IC50 at Topoisomerase II is 3.4 nM; at Topoisomerase IV, 1300 nM; at hERG channel, > 10 µM.
With `N#Cc1ccc2ncc(=O)n(CCN3CCC(NCc4ccc5c(c4)NC(=O)CS5)CC3)c2c1` [Example 6, 3-oxo-4-(2-(4-(((3-oxo-3,4-dihydro-2H-benzo[b][1,4]thiazin-6-yl)methyl)amino)piperidin-1-yl)ethyl)-3,4-dihydroquinoxaline-6-carbonitrile], the MIC in experiment [2] and in [3] was < 0.125 µg/mL throughout.
`Cc1ccc(CNC2CCN(CCn3c(=O)ccc4ccc(C#N)cc43)CC2)cc1[N+](=O)[O-]` [VT-03-00065]: the “MIC S. pnuemoniae ATCC6301” value in the experiment on S. pnuemoniae ATCC6301 was 4 µg/mL (≈ 8.98 µM). Also, the “MIC Enterococcus Faecalis ATCC29212” value in [5] was > 32 µg/mL. Moreover, the “MIC E. coli ATCC 25922” value in the experiment with E. coli ATCC 25922 was > 32 µg/mL. Further, the “MIC S. aureus-ATCC 29213” value in the experiment on S. aureus-ATCC 29213 is 0.25 µg/mL (≈ 0.561 µM). Moreover, the “MIC K pneumonia ATCC 700603” value with K pneumonia ATCC 700603 was > 32 µg/mL. Further, the “MIC Moraxella catarrhalis ATCC8176” value in [6] was > 32 µg/mL.
As for `N#Cc1ccc2ccc(=O)n(CCN3CCC(NCc4ccc5c(c4)NC(=O)CS5)CC3)c2c1` [Example 3, 2-oxo-1-(2-(4-(((3-oxo-3,4-dihydro-2H-benzo[b][1,4]thiazin-6-yl)methyl)amino)piperidin-1-yl)ethyl)-1,2-dihydroquinoline-7-carbonitrile], the MIC was 0.06 µg/mL (≈ 0.127 µM) in experiment [2]; 0.5 µg/mL (≈ 1.06 µM) in experiment [7]; 0.125 µg/mL (≈ 0.264 µM) in experiment [8]; 0.125 µg/mL (≈ 0.264 µM) in experiment [3]; 0.125 µg/mL (≈ 0.264 µM) in experiment [9]; 0.125 µg/mL (≈ 0.264 µM) in experiment [10]. Moreover, the MIC was 0.25 µg/mL (≈ 0.528 µM) in experiment [11]; < 0.125 µg/mL in experiment [4]; 0.25 µg/mL (≈ 0.528 µM) in experiment [12]; 0.25 µM (≈ 0.118 µg/mL) in experiment [13] (Mycobacterium tuberculosis, H37RV, 96 well microtiter plates). The IC50 on Topoisomerase II was 3.2 nM; on Topoisomerase IV it was 300 nM; on hERG channel, > 10 µM. Further, the “inhibition of Mycobacterium tuberculosis (in words)” value in experiment [13] is “potent inhibition”.
In the case of `O=C1COc2ccc(CNC3CCN(CCn4c(=O)ccc5ccc(F)cc54)CC3)cc2N1` [Example 4, 6-(((1-(2-(7-fluoro-2-oxoquinolin-1(2H)-yl)ethyl)piperidin-4-yl)amino)methyl)-2H-benzo[b][1,4]oxazin-3(4H)-one], the MIC in experiment [2], in [3] and in experiment [4] was < 0.125 µg/mL each time. For the same compound, the results for the IC50 at Topoisomerase II, at Topoisomerase IV and at hERG channel were 6.9 nM, 400 nM and > 10 µM, respectively.
For `N#Cc1ccc2ccc(=O)n(CCN3CCC(NCc4ccc5c(c4)OCCO5)CC3)c2c1` [Example 1, 1-(2-(4-(((2,3-dihydrobenzo[b][1,4]dioxin-6-yl)methyl)amino)piperidin-1-yl)ethyl)-2-oxo-1,2-dihydroquinoline-7-carbonitrile], the MIC in [2] was 0.03 µg/mL (≈ 0.0675 µM); in [3] it was 0.5 µg/mL (≈ 1.12 µM); in experiment [4], < 0.125 µg/mL. Besides, the IC50 at Topoisomerase II was 44 nM; on Topoisomerase IV it was 900 nM; on hERG channel, > 30 µM.
`O=C1CSc2ccc(CNC3CCN(CCn4c(=O)ccc5ccc(F)cc54)CC3)cc2N1` [Example 5, 6-(((1-(2-(7-fluoro-2-oxoquinolin-1(2H)-yl)ethyl)piperidin-4-yl)amino)methyl)-2H-benzo[b][1,4]thiazin-3(4H)-one]: the MIC was 0.25 µg/mL (≈ 0.536 µM) in [2], 0.25 µg/mL (≈ 0.536 µM) in experiment [3] and < 0.125 µg/mL in [4]. Moreover, the IC50 is 38.4 nM at Topoisomerase II, 800 nM at Topoisomerase IV and > 10 µM on hERG channel.

These data come from US20210052597A1, “HETEROCYCLIC COMPOUNDS USEFUL AS ANTIBACTERIAL AGENTS” (CADILA HEALTHCARE LIMITED, priority 2018, published 2021).
